Data reported in ChEMBL document CHEMBL5370645, “Discovery, Characterization, and Bioactivity of the Achromonodins: Lasso Peptides Encoded by Achromobacter” (J Nat Prod, 2023).
Active and inactive are the calls of the source. The calls are words filed in the database; no cut-off is given here. Positions of bridges follow the written chain, without caps; N, C: chain ends. Residues, ends and D or L forms follow the SMILES beside them.

Test system: Escherichia coli
Assay: Inhibition of Escherichia coli RNA polymerase assessed as reduction in transcriptional capacity by abortive transcription initiation assay

CC[C@H](C)[C@@H]1NC(=O)[C@H](CO)NC(=O)CNC(=O)[C@H](CC(=O)O)NC(=O)CNC(=O)CNC(=O)CC[C@@H](C(=O)N[C@@H](Cc2ccc(O)cc2)C(=O)N[C@@H](Cc2ccccc2)C(=O)N[C@@H](CC(N)=O)C(=O)N[C@@H](CCCNC(=N)N)C(=O)N2CCC[C@H]2C(=O)N[C@@H](CCSC)C(=O)N[C@@H](Cc2c[nH]cn2)C(=O)N[C@H](C(=O)N[C@@H](Cc2c[nH]cn2)C(=O)N[C@@H](CC(=O)O)C(=O)N[C@@H](Cc2c[nH]c3ccccc23)C(=O)N[C@@H](CCC(N)=O)C(=O)N[C@H](C(=O)N[C@@H](CCSC)C(=O)N[C@@H](CC(=O)O)C(=O)N[C@@H](CO)C(=O)NCC(=O)N[C@@H](Cc2ccc(O)cc2)C(=O)N[C@@H](Cc2ccc(O)cc2)C(=O)NCC(=O)O)[C@@H](C)CC)[C@@H](C)CC)NC(=O)[C@H](C)NC1=O (GGDGSIAEYFNRPMHIHDWQIMDSGYYG-OH; lactam N-8)
inhibition: Active
